Laboratory results: ChEMBL document CHEMBL6127007, “Development of visible-light-activatable photocaged PROTACs” (Eur J Med Chem, 2024)
Activity calls are given as the source filed them. The calls are words filed in the database; no cut-off is given here.

Key:
[1] = Photoactivation of the Photocaged-PROTAC assessed as uncaging rate measuring dBET1 release under visible light measured at 1 min by HPLC analysis
[2] = system: NAMALVA; assay: Antiproliferative activity against human NAMALVA cells assessed as reduction in cell viability pre-incubated for 2 hrs under dark followed by visible light irradiation for 3 mins at 405 nm and measured after 72 hrs under dark condition by CellTiter-Glo luminescent assay; assay type: functional, cell-based; conditions: light or radiation study
[3] = system: NAMALVA; assay: Antiproliferative activity against human NAMALVA cells assessed as reduction in cell viability upto 10 uM measured after 72 hrs under dark condition by CellTiter-Glo luminescent assay; assay type: functional, cell-based
[4] = target: T1, Protein cereblon/Bromodomain-containing protein 4 (Homo sapiens, UniProt O60885+Q96SW2); assay: Photocaged-PROTAC activity at CRBN/BRD4 in human Ramos cells assessed as reduction in Brd4 protein level at 0.03 to 10 uM pre-incubated for 2 hrs followed by visible light irradiation at 405 nm for 3 mins and measured after 12 hrs by Western blot analysis; assay type: cell-based; conditions: dose 0.03-10 µM, time 14.0 hrs
T1 sequence (Q96SW2 whole entry, looked up, other chains not shown): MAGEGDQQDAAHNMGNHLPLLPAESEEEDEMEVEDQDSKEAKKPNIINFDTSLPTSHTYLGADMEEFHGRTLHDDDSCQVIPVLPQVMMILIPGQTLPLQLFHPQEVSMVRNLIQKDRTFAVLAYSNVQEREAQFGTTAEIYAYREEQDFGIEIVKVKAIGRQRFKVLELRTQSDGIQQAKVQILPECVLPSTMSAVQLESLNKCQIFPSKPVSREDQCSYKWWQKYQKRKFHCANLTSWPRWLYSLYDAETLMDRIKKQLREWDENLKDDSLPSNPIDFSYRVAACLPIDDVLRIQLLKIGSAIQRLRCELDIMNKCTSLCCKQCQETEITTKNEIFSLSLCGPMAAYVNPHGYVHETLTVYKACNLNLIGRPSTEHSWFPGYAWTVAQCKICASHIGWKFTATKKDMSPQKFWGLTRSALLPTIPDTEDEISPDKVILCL

[5] = target: T1, Protein cereblon/Bromodomain-containing protein 4; assay: Photocaged-PROTAC activity at CRBN/BRD4 in human Ramos cells assessed as […] Brd4 protein degradation pre-incubated for 2 hrs followed by visible light irradiation at 405 nM for 3 mins and measured after 12 hrs by Western blot analysis; assay type: cell-based
[6] = target: T1, Protein cereblon/Bromodomain-containing protein 4; assay: Photocaged-PROTAC activity at CRBN/BRD4 in human Ramos cells assessed as […] Brd4 protein degradation pre-incubated for 2 hrs followed by UV light irradiation at 365 nM for 3 mins and measured after 12 hrs by Western blot analysis; assay type: cell-based
[7] = target: T1, Protein cereblon/Bromodomain-containing protein 4; assay: Photocaged-PROTAC activity at CRBN/BRD4 in human Ramos cells assessed as […] Brd4 protein degradation under dark condition pre-incubated for 12 hrs by Western blot analysis; assay type: cell-based
[8] = target: T1, Protein cereblon/Bromodomain-containing protein 4; assay: Photocaged-PROTAC activity at CRBN/BRD4 in human Ramos cells assessed as Brd4 protein degradation at 0.03 to 10 uM pre-incubated for 2 hrs under dark followed by 365 nm UV light irradiation for 3 mins and measured after 12 hrs by Western blot analysis; assay type: cell-based; conditions: dose 0.03-10 µM
[9] = target: T1, Protein cereblon/Bromodomain-containing protein 4; assay: Photocaged-PROTAC activity at CRBN/BRD4 in human Ramos cells assessed as Brd4 protein degradation upto 3 uM pre-incubated for 2 hrs under dark followed by 365 nm UV light irradiation for 3 mins and measured after 12 hrs by Western blot analysis; assay type: cell-based; conditions: time 14.0 hrs
[10] = system: NAMALVA; assay: Antiproliferative activity against human NAMALVA cells assessed as reduction in cell viability upto 10 uM measured after 72 hrs by CellTiter-Glo luminescent assay; assay type: functional, cell-based
[11] = target: T1, Protein cereblon/Bromodomain-containing protein 4; assay: Photocaged-PROTAC activity at CRBN/BRD4 in human Ramos cells assessed as reduction in Brd4 protein level at 0.03 to 10 uM incubated for 12 hrs under dark by Western blot analysis; assay type: cell-based; conditions: dose 0.03-10 µM
[12] = target: T1, Protein cereblon/Bromodomain-containing protein 4; assay: Photocaged-PROTAC activity at CRBN/BRD4 in human Ramos cells assessed as reduction in Brd4 protein level at 0.03 to 10 uM pre-incubated for 2 hrs under dark followed by UV light irradiation at 3 mW/cm^2 for 3 mins and measured after 12 hrs by Western blot analysis; assay type: cell-based; conditions: dose 0.03-10 µM, time 14.0 hrs
[13] = target: T1, Protein cereblon/Bromodomain-containing protein 4; assay: Photocaged-PROTAC activity at CRBN/BRD4 in human Ramos cells assessed as Brd4 protein degradation at 0.03 to 10 uM incubated for 12 hrs under dark by Western blot analysis; assay type: cell-based; conditions: dose 0.03-10 µM
[14] = target: T1, Protein cereblon/Bromodomain-containing protein 4; assay: Photocaged-PROTAC activity at CRBN/BRD4 in human Ramos cells assessed as Brd4 protein degradation at 10000 nM incubated for 12 hrs under dark by Western blot analysis; assay type: cell-based
[15] = target: T1, Protein cereblon/Bromodomain-containing protein 4; assay: Photocaged-PROTAC activity at CRBN/BRD4 in human Ramos cells assessed as Brd4 protein degradation at 30 nM pre-incubated for 2 hrs under dark followed by 365 nm UV light irradiation for 3 mins and measured after 12 hrs by Western blot analysis; assay type: cell-based; conditions: time 14.0 hrs

Structure (SMILES) | Activity [1] | IC50 [2] [nM] | IC50 [3] [µM] | DC50 [5] [nM] | DC50 [6] [nM] | DC50 [7] [µM] | further results
Cc1sc2c(c1C)C(c1ccc(Cl)cc1)=N[C@@H](CC(=O)NCCCCNC(=O)COc1cccc3c1C(=O)N(C1CCC(=O)N(OCc4cc5oc6ccccc6c5cc4[N+](=O)[O-])C1=O)C3=O)c1nnc(C)n1-2 (some centres not stated) | Active | 741 | > 2.35 | 108 |  |  | Activity [4]: Active
COc1cc(COC(=O)O[C@@H]2C[C@@H](C(=O)NCc3ccc(-c4scnc4C)cc3)N(C(=O)[C@@H](NC(=O)COCCOCCOCCOC(=O)C[C@@H]3N=C(c4ccc(Cl)cc4)c4c(sc(C)c4C)-n4c(C)nnc43)C(C)(C)C)C2)c([N+](=O)[O-])cc1OC | Active |  |  |  | < 30 | < 0.03 | Activity [8]: Active
Cc1ncsc1-c1ccc(CNC(=O)[C@@H]2C[C@@H](O)CN2C(=O)[C@@H](NC(=O)COCCOCCOCCNC(=O)C[C@@H]2N=C(c3ccc(Cl)cc3)c3c(sc(C)c3C)-n3c(C)nnc32)C(C)(C)C)cc1 |  | 170 |  |  |  |  | 
Cc1ncsc1-c1ccc(CN(Cc2cc3c(cc2[N+](=O)[O-])oc2ccccc23)C(=O)[C@@H]2C[C@@H](O)CN2C(=O)[C@@H](NC(=O)COCCOCCOCCOC(=O)C[C@@H]2N=C(c3ccc(Cl)cc3)c3c(sc(C)c3C)-n3c(C)nnc32)C(C)(C)C)cc1 |  | 140 | 1.17 | < 30 |  |  | Activity [9]: Active
Cc1sc2c(c1C)C(c1ccc(Cl)cc1)=N[C@@H](CC(=O)NCCCCNC(=O)COc1cccc3c1C(=O)N(C1CCC(=O)NC1=O)C3=O)c1nnc(C)n1-2 (some centres not stated) |  | 317 |  |  |  |  | 
Cc1sc2c(c1C)C(c1ccc(Cl)cc1)=N[C@@H](CC(=O)N(CCCCNC(=O)COc1cccc3c1C(=O)N(C1CCC(=O)NC1=O)C3=O)Cc1cc3c(cc1[N+](=O)[O-])oc1cc(N(C)C)ccc13)c1nnc(C)n1-2 (some centres not stated) | Active | 476 | > 10 | 62 |  |  | Activity [10]: inactive; Activity [4]: Active
COc1cc(CN(CCCCNC(=O)C[C@@H]2N=C(c3ccc(Cl)cc3)c3c(sc(C)c3C)-n3c(C)nnc32)C(=O)COc2cccc3c2C(=O)N(C2CCC(=O)NC2=O)C3=O)c([N+](=O)[O-])cc1OC (some centres not stated) |  |  |  |  | 55 | 0.059 | Activity [11]: Active
Cc1sc2c(c1C)C(c1ccc(Cl)cc1)=N[C@@H](CC(=O)N(CCCCNC(=O)COc1cccc3c1C(=O)N(C1CCC(=O)NC1=O)C3=O)Cc1cc3oc4ccccc4c3cc1[N+](=O)[O-])c1nnc(C)n1-2 (some centres not stated) | Active | 287 | > 10 | 32 |  |  | Activity [10]: inactive; Activity [4]: Active
CCN(Cc1cc(OC)c(OC)cc1[N+](=O)[O-])C(=O)c1sc2c(c1C)C(c1ccc(Cl)cc1)=N[C@@H](CC(=O)NCCCCNC(=O)COc1cccc3c1C(=O)N(C1CCC(=O)NC1=O)C3=O)c1nnc(C)n1-2 (some centres not stated) |  |  |  |  | 1980 | > 10 | Activity [12]: Active
COc1cc(CN(C(=O)COCCOCCOCCOC(=O)C[C@@H]2N=C(c3ccc(Cl)cc3)c3c(sc(C)c3C)-n3c(C)nnc32)[C@H](C(=O)N2C[C@H](O)C[C@H]2C(=O)NCc2ccc(-c3scnc3C)cc2)C(C)(C)C)c([N+](=O)[O-])cc1OC |  |  |  |  | > 10000 | > 10 | Activity [13]: inactive; Activity [8]: inactive
COc1cc(CN2C(=O)CCC(N3C(=O)c4cccc(OCC(=O)NCCCCNC(=O)C[C@@H]5N=C(c6ccc(Cl)cc6)c6c(sc(C)c6C)-n6c(C)nnc65)c4C3=O)C2=O)c([N+](=O)[O-])cc1OC (some centres not stated) |  |  |  |  | 2310 | > 10 | Activity [11]: inactive
COc1cc(CON2C(=O)CCC(N3C(=O)c4cccc(OCC(=O)NCCCCNC(=O)C[C@@H]5N=C(c6ccc(Cl)cc6)c6c(sc(C)c6C)-n6c(C)nnc65)c4C3=O)C2=O)c([N+](=O)[O-])cc1OC (some centres not stated) |  |  |  |  | 148 | > 10 | Activity [12]: Active; Activity [11]: inactive
CCNC(=O)c1sc2c(c1C)C(c1ccc(Cl)cc1)=N[C@@H](CC(=O)NCCCCNC(=O)COc1cccc3c1C(=O)N(C1CCC(=O)NC1=O)C3=O)c1nnc(C)n1-2 (some centres not stated) |  |  |  |  |  |  | Activity [12]: Active
COc1cc(CN(Cc2ccc(-c3scnc3C)cc2)C(=O)[C@@H]2C[C@@H](O)CN2C(=O)[C@@H](NC(=O)COCCOCCOCCOC(=O)C[C@@H]2N=C(c3ccc(Cl)cc3)c3c(sc(C)c3C)-n3c(C)nnc32)C(C)(C)C)c([N+](=O)[O-])cc1OC | Active |  |  |  | < 30 | > 10 | Activity [14]: inactive; Activity [15]: Active; Activity [8]: Active
Cc1sc2c(c1C)C(c1ccc(Cl)cc1)=N[C@@H](CC(=O)N(CCCCNC(=O)COc1cccc3c1C(=O)N(C1CCC(=O)NC1=O)C3=O)C(C)c1cc3c(cc1[N+](=O)[O-])oc1ccccc13)c1nnc(C)n1-2 (some centres not stated) | Active | 291 | > 10 | 65 |  |  | Activity [10]: inactive; Activity [4]: Active
